Reference: patent publication US20240270762A1, “PENICILLIN-BINDING PROTEIN INHIBITORS” (priority 2021, published 2024)
≈ marks a conversion by molar mass, not a printed value.

Assays:
A. baumannii PBP2 = A. baumannii PBP2 (Acinetobacter baumannii, UniProt D0C8Z9); assay: Bocillin-FL competition binding via gel filtration, A. baumannii PBP2
Outline: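 Competitive equilibrium binding; reporter Bocillin-FL. PBP + inhibitor (titration) pre-incubated → Bocillin-FL, 15 min → gel filtration → fluorescence. EC50 from Hill fit of fraction bound vs [inhibitor].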

[1] = tested on: P. aeruginosa (ΔmexAB-oprM); assay: Broth microdilution MIC in iron-depleted CAMHB (IDM); assay type: cell-based; conditions: Pseudomonas aeruginosa; iron-depleted CAMHB (IDM); […]; read-out: Minimum inhibitory concentration, P. aeruginosa ΔmexAB-oprM
[2] = tested on: B. humptydooensis ATCC BAA-2767; assay: microbe, parasite or virus in culture; assay type: cell-based; conditions: Burkholderia humptydooensis, ATCCBAA2767, read-out: Minimum inhibitory concentration (MIC), B. humptydooensis ATCC BAA-2767
A. baumannii ATCC 19606 = assay: microbe, parasite or virus in culture; assay type: cell-based; conditions: Acinetobacter baumannii, ATCC19606, read-out: MIC, A. baumannii ATCC 19606
P. aeruginosa CDC-0090 = assay: microbe, parasite or virus in culture; assay type: cell-based; conditions: Pseudomonas aeruginosa, CDC0090, read-out: Minimum inhibitory concentration, P. aeruginosa CDC-0090
A. baumannii CDC-0045 = assay: microbe, parasite or virus in culture; assay type: cell-based; conditions: Acinetobacter baumannii, CDC0045, read-out: MIC, A. baumannii CDC-0045
A. baumannii CDC-0036 = assay: microbe, parasite or virus in culture; assay type: cell-based; conditions: Acinetobacter baumannii, CDC0036, read-out: MIC, A. baumannii CDC-0036
P. aeruginosa ATCC 35151 = assay: microbe, parasite or virus in culture; assay type: cell-based; conditions: Pseudomonas aeruginosa, ATCC35151, read-out: Minimum inhibitory concentration, P. aeruginosa ATCC 35151
P. aeruginosa CDC-0095 = assay: microbe, parasite or virus in culture; assay type: cell-based; conditions: Pseudomonas aeruginosa, CDC0095, read-out: Minimum inhibitory concentration, P. aeruginosa CDC-0095
A. baumannii ATCC 17978 = assay: microbe, parasite or virus in culture; assay type: cell-based; conditions: Acinetobacter baumannii, ATCC17978, read-out: MIC, A. baumannii ATCC 17978
A. baumannii CDC-0033 = assay: microbe, parasite or virus in culture; assay type: cell-based; conditions: Acinetobacter baumannii, CDC0033, read-out: MIC, A. baumannii CDC-0033
[3] = molecular target: T1, PBP3 from Escherichia coli (K-12) (Escherichia coli, UniProt P0AD68); assay: Bocillin-FL fluorescence polarization competition binding, E. coli PBP3
T1 construct: made in house
T1 sequence (P0AD68 1-577): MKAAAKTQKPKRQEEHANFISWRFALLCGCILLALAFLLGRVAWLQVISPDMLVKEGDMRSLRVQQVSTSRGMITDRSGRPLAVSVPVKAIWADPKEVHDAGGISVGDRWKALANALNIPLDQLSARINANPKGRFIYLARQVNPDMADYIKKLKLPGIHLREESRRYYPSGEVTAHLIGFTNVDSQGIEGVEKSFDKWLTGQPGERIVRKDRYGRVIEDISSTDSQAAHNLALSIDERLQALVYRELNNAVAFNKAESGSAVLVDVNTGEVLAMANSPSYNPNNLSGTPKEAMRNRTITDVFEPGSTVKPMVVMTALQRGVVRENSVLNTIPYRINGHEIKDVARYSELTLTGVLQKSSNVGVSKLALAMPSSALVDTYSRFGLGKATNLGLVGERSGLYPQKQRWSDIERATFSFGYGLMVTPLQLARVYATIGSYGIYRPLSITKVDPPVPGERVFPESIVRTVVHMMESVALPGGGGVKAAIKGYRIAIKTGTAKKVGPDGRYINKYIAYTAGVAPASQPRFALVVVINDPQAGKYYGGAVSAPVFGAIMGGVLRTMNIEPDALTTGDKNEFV
Outline: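 Purified PBP was preincubated with inhibitor (E. coli PBP3 1.5 μM, 30 min; P. aeruginosa PBP3 0.75 μM, A. baumannii PBP3 0.2 μM and PBP1a 1 μM, 15 min), then Bocillin-FL (0.1 μM; 0.05 μM for PBP1a) added and FP read up to 60 min. EC50 = 50% loss of bound probe.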

Sequence of A. baumannii PBP2 (D0C8Z9 whole entry): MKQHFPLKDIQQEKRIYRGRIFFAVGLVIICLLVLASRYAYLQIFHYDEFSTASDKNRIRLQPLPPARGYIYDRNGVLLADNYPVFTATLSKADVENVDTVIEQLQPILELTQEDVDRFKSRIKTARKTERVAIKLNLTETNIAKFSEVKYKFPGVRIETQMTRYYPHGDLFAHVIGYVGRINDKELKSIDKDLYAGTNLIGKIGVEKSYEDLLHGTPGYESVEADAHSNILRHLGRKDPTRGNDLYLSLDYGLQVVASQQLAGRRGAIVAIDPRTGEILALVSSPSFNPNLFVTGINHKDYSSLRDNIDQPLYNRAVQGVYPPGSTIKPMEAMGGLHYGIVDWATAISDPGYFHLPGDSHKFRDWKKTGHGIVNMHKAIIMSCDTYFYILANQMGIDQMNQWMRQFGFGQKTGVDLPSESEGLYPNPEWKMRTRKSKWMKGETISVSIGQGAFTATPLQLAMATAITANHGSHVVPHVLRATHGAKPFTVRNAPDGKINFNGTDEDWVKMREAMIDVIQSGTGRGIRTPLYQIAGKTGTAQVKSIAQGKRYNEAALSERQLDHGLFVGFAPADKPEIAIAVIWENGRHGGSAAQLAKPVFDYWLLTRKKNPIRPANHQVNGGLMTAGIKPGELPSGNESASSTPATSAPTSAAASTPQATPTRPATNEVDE

SMILES	EC50 (A. baumannii PBP2)	MIC [1]	MIC [2]	MIC (A. baumannii ATCC 19606)	MIC (P. aeruginosa CDC-0090)	MIC (A. baumannii CDC-0045)	MIC (A. baumannii CDC-0036)	MIC (P. aeruginosa ATCC 35151)	MIC (P. aeruginosa CDC-0095)	MIC (A. baumannii ATCC 17978)	MIC (A. baumannii CDC-0033)	EC50 [3]
O=C(NCCCN1CCN(C(=O)NC(C(=O)N[C@H]2Cc3ccc(F)c(C(=O)O)c3OB2O)c2cc(F)c(O)c(O)c2Cl)C(=O)C1=O)c1cc(O)ccc1Cl (stereo partly drawn) [Example 408, (3R)-3-(2-(2-chloro-5-fluoro-3,4-dihydroxyphenyl)-2-(4-(3-(2-chloro-5-hydroxybenzamido)propyl)-2,3-dioxopiperazine-1-carboxamido)acetamido)-7-fluoro-2-hydroxy-3,4-dihydro-2H-benzo[e][1,2]oxaborinine-8-carboxylic acid]	< 10 µM	< 1 µg/mL	8 to 16 µg/mL (≈ 10.1 to 20.1 µM)	< 1 µg/mL	< 1 µg/mL	< 1 µg/mL	8 to 16 µg/mL (≈ 10.1 to 20.1 µM)	< 1 µg/mL	< 1 µg/mL	< 1 µg/mL	2 to 4 µg/mL (≈ 2.52 to 5.04 µM)	< 10 µM
O=C(NCCCN1CCN(C(=O)NC(C(=O)N[C@H]2Cc3ccc(F)c(C(=O)O)c3OB2O)c2cc(F)c(O)c(O)c2Cl)C(=O)C1=O)c1ccc(F)c(O)c1 (stereo partly drawn) [Example 409, (3R)-3-(2-(2-chloro-5-fluoro-3,4-dihydroxyphenyl)-2-(4-(3-(4-fluoro-3-hydroxybenzamido)propyl)-2,3-dioxopiperazine-1-carboxamido)acetamido)-7-fluoro-2-hydroxy-3,4-dihydro-2H-benzo[e][1,2]oxaborinine-8-carboxylic acid]	< 10 µM	< 1 µg/mL	8 to 16 µg/mL (≈ 10.3 to 20.6 µM)	< 1 µg/mL	< 1 µg/mL	< 1 µg/mL	2 to 4 µg/mL (≈ 2.57 to 5.14 µM)	< 1 µg/mL	2 to 4 µg/mL (≈ 2.57 to 5.14 µM)	< 1 µg/mL	2 to 4 µg/mL (≈ 2.57 to 5.14 µM)	< 10 µM
O=C(NCCCN1CCN(C(=O)NC(C(=O)N[C@H]2Cc3ccc(F)c(C(=O)O)c3OB2O)c2cc(F)c(O)c(O)c2Cl)C(=O)C1=O)c1cc(O)cc(F)c1 (stereo partly drawn) [Example 410, (3R)-3-(2-(2-chloro-5-fluoro-3,4-dihydroxyphenyl)-2-(4-(3-(3-fluoro-5-hydroxybenzamido)propyl)-2,3-dioxopiperazine-1-carboxamido)acetamido)-7-fluoro-2-hydroxy-3,4-dihydro-2H-benzo[e][1,2]oxaborinine-8-carboxylic acid]	< 10 µM	< 1 µg/mL	> 128 µg/mL	< 1 µg/mL	< 1 µg/mL	< 1 µg/mL	2 to 4 µg/mL (≈ 2.57 to 5.14 µM)	< 1 µg/mL	2 to 4 µg/mL (≈ 2.57 to 5.14 µM)	< 1 µg/mL	2 to 4 µg/mL (≈ 2.57 to 5.14 µM)	< 10 µM
O=C(NCCCN1CCN(C(=O)NC(C(=O)N[C@H]2Cc3ccc(F)c(C(=O)O)c3OB2O)c2cc(F)c(O)c(O)c2Cl)C(=O)C1=O)c1ccc(F)c(O)c1F (stereo partly drawn) [Example 411, (3R)-3-(2-(2-chloro-5-fluoro-3,4-dihydroxyphenyl)-2-(4-(3-(2,4-difluoro-3-hydroxybenzamido)propyl)-2,3-dioxopiperazine-1-carboxamido)acetamido)-7-fluoro-2-hydroxy-3,4-dihydro-2H-benzo[e][1,2]oxaborinine-8-carboxylic acid]	< 10 µM	< 1 µg/mL	2 to 4 µg/mL (≈ 2.51 to 5.03 µM)	< 1 µg/mL	< 1 µg/mL	2 to 4 µg/mL (≈ 2.51 to 5.03 µM)	2 to 4 µg/mL (≈ 2.51 to 5.03 µM)	< 1 µg/mL	< 1 µg/mL	< 1 µg/mL	8 to 16 µg/mL (≈ 10.1 to 20.1 µM)	< 10 µM
O=C(NCCCN1CCN(C(=O)NC(C(=O)N[C@H]2Cc3ccc(F)c(C(=O)O)c3OB2O)c2cc(F)c(O)c(O)c2Cl)C(=O)C1=O)c1c(F)ccc(O)c1F (stereo partly drawn) [Example 413, (3R)-3-(2-(2-chloro-5-fluoro-3,4-dihydroxyphenyl)-2-(4-(3-(2,6-difluoro-3-hydroxybenzamido)propyl)-2,3-dioxopiperazine-1-carboxamido)acetamido)-7-fluoro-2-hydroxy-3,4-dihydro-2H-benzo[e][1,2]oxaborinine-8-carboxylic acid]	10 to 50 µM	< 1 µg/mL	2 to 4 µg/mL (≈ 2.51 to 5.03 µM)	< 1 µg/mL	< 1 µg/mL	2 to 4 µg/mL (≈ 2.51 to 5.03 µM)	2 to 4 µg/mL (≈ 2.51 to 5.03 µM)	< 1 µg/mL	< 1 µg/mL	< 1 µg/mL	2 to 4 µg/mL (≈ 2.51 to 5.03 µM)	< 10 µM
O=C(NCCCN1CCN(C(=O)NC(C(=O)N[C@H]2Cc3ccc(F)c(C(=O)O)c3OB2O)c2cc(F)c(O)c(O)c2Cl)C(=O)C1=O)c1c(F)ccc(O)c1Cl (stereo partly drawn) [Example 414, (3R)-3-(2-(2-chloro-5-fluoro-3,4-dihydroxyphenyl)-2-(4-(3-(2-chloro-6-fluoro-3-hydroxybenzamido)propyl)-2,3-dioxopiperazine-1-carboxamido)acetamido)-7-fluoro-2-hydroxy-3,4-dihydro-2H-benzo[e][1,2]oxaborinine-8-carboxylic acid]	< 10 µM	< 1 µg/mL	2 to 4 µg/mL (≈ 2.46 to 4.92 µM)	< 1 µg/mL	< 1 µg/mL	2 to 4 µg/mL (≈ 2.46 to 4.92 µM)	2 to 4 µg/mL (≈ 2.46 to 4.92 µM)	< 1 µg/mL	< 1 µg/mL	< 1 µg/mL	2 to 4 µg/mL (≈ 2.46 to 4.92 µM)	< 10 µM
O=C(NCCCN1CCN(C(=O)NC(C(=O)N[C@H]2Cc3ccc(F)c(C(=O)O)c3OB2O)c2cc(F)c(O)c(O)c2Cl)C(=O)C1=O)c1cc(O)c(F)c(O)c1F (stereo partly drawn) [Example 415, (3R)-3-(2-(2-chloro-5-fluoro-3,4-dihydroxyphenyl)-2-(4-(3-(2,4-difluoro-3,5-dihydroxybenzamido)propyl)-2,3-dioxopiperazine-1-carboxamido)acetamido)-7-fluoro-2-hydroxy-3,4-dihydro-2H-benzo[e][1,2]oxaborinine-8-carboxylic acid]	10 to 50 µM	< 1 µg/mL	8 to 16 µg/mL (≈ 9.85 to 19.7 µM)	< 1 µg/mL	< 1 µg/mL	2 to 4 µg/mL (≈ 2.46 to 4.93 µM)	2 to 4 µg/mL (≈ 2.46 to 4.93 µM)	< 1 µg/mL	< 1 µg/mL	< 1 µg/mL	2 to 4 µg/mL (≈ 2.46 to 4.93 µM)	10 to 50 µM
O=C(NCCCN1CCN(C(=O)NC(C(=O)N[C@H]2Cc3ccc(F)c(C(=O)O)c3OB2O)c2cc(F)c(O)c(O)c2Cl)C(=O)C1=O)c1cc(O)c(F)c(O)c1 (stereo partly drawn) [Example 416, (3R)-3-(2-(2-chloro-5-fluoro-3,4-dihydroxyphenyl)-2-(4-(3-(4-fluoro-3,5-dihydroxybenzamido)propyl)-2,3-dioxopiperazine-1-carboxamido)acetamido)-7-fluoro-2-hydroxy-3,4-dihydro-2H-benzo[e][1,2]oxaborinine-8-carboxylic acid]	< 10 µM	< 1 µg/mL	< 1 µg/mL	< 1 µg/mL	< 1 µg/mL	< 1 µg/mL	2 to 4 µg/mL (≈ 2.52 to 5.04 µM)	< 1 µg/mL	< 1 µg/mL	< 1 µg/mL	2 to 4 µg/mL (≈ 2.52 to 5.04 µM)	< 10 µM
O=C(NCCCN1CCN(C(=O)NC(C(=O)N[C@H]2Cc3ccc(F)c(C(=O)O)c3OB2O)c2cc(F)c(O)c(O)c2Cl)C(=O)C1=O)c1ccc(O)c(F)c1Cl (stereo partly drawn) [Example 418, (3R)-3-(2-(4-(3-(2-chloro-3-fluoro-4-hydroxybenzamido)propyl)-2,3-dioxopiperazine-1-carboxamido)-2-(2-chloro-5-fluoro-3,4-dihydroxyphenyl)acetamido)-7-fluoro-2-hydroxy-3,4-dihydro-2H-benzo[e][1,2]oxaborinine-8-carboxylic acid]	< 10 µM	< 1 µg/mL	< 1 µg/mL	< 1 µg/mL	< 1 µg/mL	< 1 µg/mL	2 to 4 µg/mL (≈ 2.46 to 4.92 µM)	< 1 µg/mL	2 to 4 µg/mL (≈ 2.46 to 4.92 µM)	< 1 µg/mL	< 1 µg/mL	< 10 µM
O=C(NCCCN1CCN(C(=O)NC(C(=O)N[C@H]2Cc3ccc(F)c(C(=O)O)c3OB2O)c2cc(F)c(O)c(O)c2Cl)C(=O)C1=O)c1ccc(O)c(Cl)c1F (stereo partly drawn) [Example 419, (3R)-3-(2-(4-(3-(3-chloro-2-fluoro-4-hydroxybenzamido)propyl)-2,3-dioxopiperazine-1-carboxamido)-2-(2-chloro-5-fluoro-3,4-dihydroxyphenyl)acetamido)-7-fluoro-2-hydroxy-3,4-dihydro-2H-benzo[e][1,2]oxaborinine-8-carboxylic acid]	< 10 µM	< 1 µg/mL	2 to 4 µg/mL (≈ 2.46 to 4.92 µM)	< 1 µg/mL	2 to 4 µg/mL (≈ 2.46 to 4.92 µM)	2 to 4 µg/mL (≈ 2.46 to 4.92 µM)	2 to 4 µg/mL (≈ 2.46 to 4.92 µM)	< 1 µg/mL	2 to 4 µg/mL (≈ 2.46 to 4.92 µM)	< 1 µg/mL	8 to 16 µg/mL (≈ 9.85 to 19.7 µM)	< 10 µM
